Measured values from patent US20230364084A1, “METHODS FOR PREVENTING OR TREATING CONDITIONS RELATED TO PIKFYVE ACTIVITY” (The Regents of the University of Michigan, priority 2020, published 2023).

How the values were obtained:
VCaP 3D spheroids = test: 3D spheroid culture; type: cell-based, human; details: VCaP 3D spheroid culture, compared with cabozantinib
Description: Nuclear red fluorescent protein-expressing VCaP cells were seeded in ultralow attachment 96-well plates and spun down at 1000 rpm for 10 minutes to pellet cells. Spheroids were formed after 3 days of incubation in a cell culture incubator, and then treatment was started. Red fluorescence intensity was monitored by IncuCyte ZOOM.

[1] = system: GFP-LC3 expressing DU145 cells; test: GFP-LC3 puncta confocal imaging; type: cell-based, human
Description: For GFP-LC3 confocal imaging, GFP-LC3 expressing DU145 cells were seeded on coverslips overnight and treated with ESK981 at 300 nM for various time points. Coverslips were then fixed with 10% paraformaldehyde. Confocal images were taken using a Nikon A1 confocal microscope.

PC3 and DU145 cells = test: autophagic flux detection (GFP-LC3-RFP-LC3ΔG probe); type: cell-based, human; details: PC3 or DU145 cells, 24 hours
Description: For autophagic flux detection, 10,000 cells were plated in 96-well plates and incubated with various compounds in complete medium for 24 hours. GFP and RFP fluorescence intensities were measured on a TECAN M1000 plate reader.

VCaP cells = test: human cytokine array of conditioned medium; type: cell-based; details: VCaP conditioned media, 300 nM, 24 hours
Description: Cells were seeded in 6-well plates, and conditioned medium was collected after 24 hours of drug incubation. Cytokine expression was determined by proteome profiler mouse XL cytokine array (Cat No. ARY028, R&D System) or proteome profiler human XL cytokine array kit (Cat No. ARY022, R&D System) according to the manufacturer's instructions.

Myc-CaP tumors = test: Myc-CaP syngeneic murine prostate model in FVB mice; type: in vivo, mouse
Description: MYC-driven murine prostate cancer cells (Myc-CaP) were injected at a density of 1×10^6 subcutaneously into both flanks of 4- to 6-week old FVB mice (Charles River Laboratories) in serum-free medium with 50% Matrigel. When tumors reached ˜50 mm^3, tumor-bearing mice were randomized and treated with 15 mg/kg or 30 mg/kg ESK981 or vehicle (ORA-PLUS) by oral gavage 5 days per week. For the ESK981 and anti-PD-1 combination study, 15 mg/kg ESK981 or vehicle were given 5 days per week by oral gavage, while anti-PD-1 (Cat No. BE0146, BioXcell) or isotype control (Cat No. BE0089, BioXcell) were given at 200 μg per mouse 3 times per week by intraperitoneal injection (i.p.). For the ESK981 and anti-CXCR3 combination study, 15 mg/kg ESK981 or vehicle were given 5 days per week by oral gavage, while anti-CXCR3 (Cat No. BE0249, BioXcell) or isotype control (Cat No. BE0091, BioXcell) were given at 100 μg per mouse 3 times per week by i.p. For the shPikfyve study, Myc-CaP shPikfyve cells were injected at a density of 2×10^6 subcutaneously into both flanks of 4- to 6-week old NSG or FVB mice in serum-free medium with 50% Matrigel. When tumors reached 100 mm^3, tumor-bearing mice were randomized and treated with normal diet or doxycycline 625 mg/kg diet (Envigo). For the shPikfyve and anti-PD-1 combination study, Myc-CaP shPikfyve cells were injected at a density of 2×10^6 subcutaneously into both flanks of 4- to 6-week old FVB mice in serum-free medium with 50% Matrigel. When tumors reached 100 mm^3, tumor-bearing mice were randomized and treated with normal diet or doxycycline 625 mg/kg diet for 7 days, and then anti-PD-1 or isotype control were given at 200 μg per mouse 3 times per week in combination with normal or doxycycline diet.

PIKfyve = PIKfyve (Homo sapiens, UniProt Q9Y2I7); test: cellular thermal shift assay; type: cell-based; design: endogenous in cells; host or cells: VCaP cells; details: VCaP cells, 1 μM, 2 hours
Description: The ability of compounds to interact with, and thereby stabilize the target in intact cells, was analyzed essentially as previously described^60,61. The target engagement of ESK981 to PIKfyve was performed in VCaP cells. Cells were treated with DMSO, ESK981 (1 μM), or apilimod (1 μM) for 2 hours at 37° C. and 5% CO2, and 1×10^6 single cell suspensions were diluted into 50 μl of PBS containing protease inhibitor. Cell suspensions were then incubated in a PCR thermal cycler at various temperatures for 2 cycles of 3 minutes heating followed by 3 minutes cooling at room temperature. Cells were lysed by three cycles of freeze-thawing using liquid nitrogen. 20 μl of the soluble fraction of cell lysates were analyzed by western blot.

[2] = 15 mg/kg solo treatment, four weeks

PIKfyve, sequence (Q9Y2I7 whole entry): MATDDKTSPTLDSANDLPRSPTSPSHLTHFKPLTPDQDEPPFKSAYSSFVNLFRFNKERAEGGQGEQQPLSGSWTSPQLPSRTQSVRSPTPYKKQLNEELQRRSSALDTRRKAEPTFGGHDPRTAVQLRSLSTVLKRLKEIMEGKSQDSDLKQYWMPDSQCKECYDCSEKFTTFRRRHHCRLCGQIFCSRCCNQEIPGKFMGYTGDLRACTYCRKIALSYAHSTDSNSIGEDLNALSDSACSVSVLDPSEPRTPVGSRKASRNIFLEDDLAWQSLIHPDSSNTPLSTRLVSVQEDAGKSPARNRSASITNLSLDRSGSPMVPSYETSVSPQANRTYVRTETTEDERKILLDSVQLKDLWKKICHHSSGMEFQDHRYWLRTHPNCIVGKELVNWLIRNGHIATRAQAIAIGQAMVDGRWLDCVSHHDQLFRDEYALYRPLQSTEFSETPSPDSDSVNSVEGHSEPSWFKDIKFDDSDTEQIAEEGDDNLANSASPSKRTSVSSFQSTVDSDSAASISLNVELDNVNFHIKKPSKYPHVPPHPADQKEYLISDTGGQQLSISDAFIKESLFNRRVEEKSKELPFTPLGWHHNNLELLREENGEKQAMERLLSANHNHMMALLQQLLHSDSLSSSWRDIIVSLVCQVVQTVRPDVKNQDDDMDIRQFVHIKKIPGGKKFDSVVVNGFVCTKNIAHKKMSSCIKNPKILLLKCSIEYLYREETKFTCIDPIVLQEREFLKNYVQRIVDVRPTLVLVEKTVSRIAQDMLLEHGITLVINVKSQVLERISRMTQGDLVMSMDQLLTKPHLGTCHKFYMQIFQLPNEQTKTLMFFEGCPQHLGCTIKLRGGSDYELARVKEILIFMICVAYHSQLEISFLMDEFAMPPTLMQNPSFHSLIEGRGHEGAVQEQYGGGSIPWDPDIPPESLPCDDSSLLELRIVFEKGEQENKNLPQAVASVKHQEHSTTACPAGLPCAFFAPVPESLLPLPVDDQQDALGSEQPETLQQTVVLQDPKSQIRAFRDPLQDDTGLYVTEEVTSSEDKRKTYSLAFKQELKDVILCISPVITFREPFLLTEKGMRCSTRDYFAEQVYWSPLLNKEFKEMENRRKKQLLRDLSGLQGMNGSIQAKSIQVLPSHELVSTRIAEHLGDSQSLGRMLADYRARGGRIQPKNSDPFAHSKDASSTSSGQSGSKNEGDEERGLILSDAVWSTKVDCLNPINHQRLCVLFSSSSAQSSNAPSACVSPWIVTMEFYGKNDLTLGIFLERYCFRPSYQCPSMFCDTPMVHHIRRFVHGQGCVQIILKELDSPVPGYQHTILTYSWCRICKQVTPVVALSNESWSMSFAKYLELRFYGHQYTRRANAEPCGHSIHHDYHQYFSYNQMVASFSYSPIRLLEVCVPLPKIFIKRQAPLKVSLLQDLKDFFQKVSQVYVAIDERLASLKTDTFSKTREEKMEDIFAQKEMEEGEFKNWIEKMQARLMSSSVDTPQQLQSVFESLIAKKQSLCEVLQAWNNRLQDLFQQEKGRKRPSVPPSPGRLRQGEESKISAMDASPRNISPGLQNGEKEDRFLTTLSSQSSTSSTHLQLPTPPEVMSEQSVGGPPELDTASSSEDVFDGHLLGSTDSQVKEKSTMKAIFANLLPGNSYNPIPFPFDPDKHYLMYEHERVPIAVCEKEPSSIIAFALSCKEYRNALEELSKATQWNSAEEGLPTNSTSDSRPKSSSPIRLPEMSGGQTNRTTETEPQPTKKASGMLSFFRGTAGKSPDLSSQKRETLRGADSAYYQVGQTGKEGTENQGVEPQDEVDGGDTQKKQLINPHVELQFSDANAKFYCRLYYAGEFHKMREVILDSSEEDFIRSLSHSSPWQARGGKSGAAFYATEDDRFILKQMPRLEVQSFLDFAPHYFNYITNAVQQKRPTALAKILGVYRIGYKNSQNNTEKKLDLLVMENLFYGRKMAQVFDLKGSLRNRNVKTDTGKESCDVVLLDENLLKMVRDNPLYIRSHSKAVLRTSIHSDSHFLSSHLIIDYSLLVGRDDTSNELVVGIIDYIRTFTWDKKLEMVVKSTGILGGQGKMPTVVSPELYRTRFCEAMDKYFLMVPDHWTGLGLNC

## CC(C)Cn1c2ccc(Nc3ncccn3)cc2c2c3c(c4c(c21)CCc1nn(C)cc1-4)C(=O)NC3 [ESK981, 13-isobutyl-4-methyl-10-(pyrimidin-2-ylamino)-1,2,4,7,8,13-hexahydro-6H-indazolo[5,4-a]pyrrolo[3,4-c]carbazol-6-one]
VCaP 3D spheroids
  inhibitory effect on 3D spheroids: more robust inhibitory effect at relatively lower concentrations than cabozantinib
[1]
  time to vacuole formation: only observed after four hours of treatment
[1]; 300 nM
  time to LC3 puncta formation: ≤ 1 h
PC3 and DU145 cells
  autophagic flux (GFP/RFP ratio): low autophagic flux
VCaP cells
  cytokines induced (array of 105 cytokines): significantly induced only CXCL10 and, to a lesser extent, CCL2
Myc-CaP tumors; 15 mg/kg ESK981 with anti-PD-1, 6 weeks
  effect of co-treatment on the anti-PD-1 tumor inhibitory effect: strongly enhanced
Myc-CaP tumors; [2]
  Cd3 mRNA in tumors: upregulated
  Cxcl10 mRNA in tumors: upregulated
Myc-CaP tumors; 15 mg/kg, 30 mg/kg
  Cd3 mRNA levels in tumors: dose-dependent upregulation
  tumor doubling time (progression-free survival): significantly increased tumor doubling time
Myc-CaP tumors; 15 mg/kg, 30 mg/kg, dose-dependent
  average Cxcl10 levels in tumors: significantly increased
Myc-CaP tumors; 15 mg/kg, 30 mg/kg, oral gavage 5 days per week, three weeks
  tumor growth: dose-dependent growth inhibition
Myc-CaP tumors; 15 mg/kg, five days of treatment
  LC3 lipidation in tumors: elevated LC3 lipidation
Myc-CaP tumors; 30 mg/kg group, day 19
  bioluminescent-negative tumors: five out of ten
Myc-CaP tumors; single agents
  CD3+ T cell trafficking in the tumor microenvironment (Cd3 RNA ISH): increased
PIKfyve
  cellular target engagement on PIKfyve: confirmed
